Test results published in publication PMC12733323, “Novel Mono-Substituted 4H-1,2,6-Thiadiazines with Antioxidant and Anti-Lipoxygenase Activities” (International Journal of Molecular Sciences, 2025).
Where two headings read alike, the source gives them in different places.

Columns and labels:
[1] = Inhibition of AAPH-induced linoleic acid peroxidation
Text: In the lipid peroxidation assay, sodium linoleate was used as the substrate, while 2,2′-azobis(2-methylpropionamidine) dihydrochloride (AAPH) was the peroxyl radical initiator. The formation of 13-hydroperoxy-linoleic acid from linoleic acid was observed by UV-Vis absorption measurements at 234 nm. Trolox was used as a reference compound.
AAPH was used as an alkyl peroxyl radical inducer. In this experiment, the compounds’ ability to prevent linoleic acid oxidation by alkyl peroxyl radicals through absorbance changes at 234nm was evaluated, corresponding to the production of 13-hydroperoxy-linoleic acid. Trolox was used as the reference compound.

soybean lipoxygenase = molecular target: T1, soybean lipoxygenase (Glycine max, UniProt P08170); assay: Inhibition of soybean lipoxygenase; assay type: biochemical; conditions: for inhibition at 100 µM: read-out: LOX % Inhibition 100 μM
T1 sequence (P08170 1-839): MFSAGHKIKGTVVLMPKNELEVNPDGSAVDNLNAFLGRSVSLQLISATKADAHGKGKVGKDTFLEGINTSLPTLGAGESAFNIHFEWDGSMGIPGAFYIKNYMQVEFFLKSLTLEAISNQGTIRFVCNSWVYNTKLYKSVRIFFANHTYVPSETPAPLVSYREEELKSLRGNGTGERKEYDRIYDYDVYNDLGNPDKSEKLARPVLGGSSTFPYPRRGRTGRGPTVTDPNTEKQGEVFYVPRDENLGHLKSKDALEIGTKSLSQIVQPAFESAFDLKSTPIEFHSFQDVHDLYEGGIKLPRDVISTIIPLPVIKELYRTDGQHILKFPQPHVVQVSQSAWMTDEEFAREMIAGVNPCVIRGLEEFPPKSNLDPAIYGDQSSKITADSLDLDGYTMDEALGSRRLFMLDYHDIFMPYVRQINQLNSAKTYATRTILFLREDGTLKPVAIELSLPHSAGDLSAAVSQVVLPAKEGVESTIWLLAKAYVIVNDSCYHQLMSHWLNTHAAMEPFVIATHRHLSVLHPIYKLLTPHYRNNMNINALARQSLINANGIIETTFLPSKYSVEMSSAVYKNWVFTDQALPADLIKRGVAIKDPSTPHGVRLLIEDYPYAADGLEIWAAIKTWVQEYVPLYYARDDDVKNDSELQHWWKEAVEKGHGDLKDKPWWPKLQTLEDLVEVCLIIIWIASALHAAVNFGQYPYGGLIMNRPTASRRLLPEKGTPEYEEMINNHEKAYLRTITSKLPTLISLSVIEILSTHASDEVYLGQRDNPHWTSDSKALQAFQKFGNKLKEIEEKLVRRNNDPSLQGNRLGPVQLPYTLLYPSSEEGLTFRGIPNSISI
Description: Lipoxygenase (LOX) plays a key role in the formation of leukotrienes, which are important inflammatory mediators. Leukotrienes are considered key therapeutic targets in inflammatory diseases due to their role. Soybean lipoxygenase (LOX), a plant-based enzyme, has long been used as a model system to study the structural and functional characteristics of the lipoxygenase family due to its significant homology with human 5-LOX [39].
Sodium linoleate (0.1 mM), 0.2 mL of soybean lipoxygenase solution (1/9 × 10^−4 w/v in saline), and 10 μL of the test compound stock solution (10 mM in DMSO) were incubated at room temperature. The formation of 13-hydroperoxy-linoleic acid was monitored by measuring absorbance at 234 nm. […] A couple of concentrations of the test compounds were used to calculate the IC50 values.

[2] = Interaction with the stable free radical DPPH (reducing activity)
Description: The synthesized derivatives were tested for their interaction with the stable free radical 2,2-diphenyl-1-picrylhydrazyl (DPPH) at a concentration of 100 μM after 20 and 60 min (Table 4). DPPH is widely used as a standard method for evaluating antioxidant activity. […] However, lipophilic compounds typically dissolve efficiently in organic solvents when they react with DPPH. The relationship between antioxidant activity and lipophilicity was reported in previous studies.
In vitro assays were carried out to evaluate the reducing activity of the novel derivatives against the DPPH stable radical. Free radical scavenging activity was determined by measuring absorbance at 517 nm after 20 and 60 min at room temperature. NDGA served as the reference compound. (Table 4).

SMILES	%AAPH (100 µM) [1]	inhibition at 100 µM (soybean lipoxygenase)	RA%, DPPH, 20 min (100 µM) [2]	RA%, DPPH, 60 min (100 µM) [2]	RA%, DPPH, 60 min (100 µM) ([2]; listed as ΝDGA)	IC50 (soybean lipoxygenase)	IC50 (soybean lipoxygenase; read-out: LOX IC50)
O=c1c(Cl)nsnc1Sc1nnnn1-c1ccccc1 [Compound 11e, 3-Chloro-5-[(1-phenyl-1H-tetrazol-5-yl)thio]-4H-1,2,6-thiadiazin-4-one]	No	50%	15%	17%	–	–	–
CC(Cc1ccc(O)c(O)c1)C(C)Cc1ccc(O)c(O)c1 (centres unmarked) [NDGA, Nordihydroguaiaretic acid, reference compound]	–	–	87%	87%	93%	–	–
O=c1c(Cl)nsnc1Sc1nc2ccccc2o1 [Compound 11c, 3-(Benzo[d]oxazol-2-ylthio)-5-chloro-4H-1,2,6-thiadiazin-4-one]	5%	–	21%	22%	–	77.5 µM	–
N#CC(C#N)=C1C(Cl)=NSN=C1Sc1nc2ccccc2o1 [Compound 12c, 2-[3-(Benzo[d]oxazol-2-ylthio)-5-chloro-4H-1,2,6-thiadiazin-4-ylidene]malononitrile]	70%	27%	89%	92%	–	–	–
N#CC(C#N)=C1C(Cl)=NSN=C1N1CCN(c2ccccc2)CC1 [Compound 10a, 2-[3-Chloro-5-(4-phenylpiperazin-1-yl)-4H-1,2,6-thiadiazin-4-ylidene]malononitrile]	27%	46%	16%	15%	–	–	–
Cc1ccnc(Sc2nsnc(Cl)c2=O)n1 [Compound 11a, 3-Chloro-5-[(4-methylpyrimidin-2-yl)thio]-4H-1,2,6-thiadiazin-4-one]	No	31%	2%	no	–	–	–
N#CC(C#N)=C1C(Cl)=NSN=C1N1CCN(C(c2ccccc2)c2ccccc2)CC1 [Compound 10b, 2-[3-(4-Benzhydrylpiperazin-1-yl)-5-chloro-4H-1,2,6-thiadiazin-4-ylidene]malononitrile]	No	–	no	no	–	–	67.5 µM
Cn1cnnc1Sc1nsnc(Cl)c1=O [Compound 11f, 3-Chloro-5-[(4-methyl-4H-1,2,4-triazol-3-yl)thio]-4H-1,2,6-thiadiazin-4-one]	7%	–	10%	12%	–	52.5 µM	–
O=c1c(Cl)nsnc1Sc1nccs1 [Compound 11g, 3-Chloro-5-(thiazol-2-ylthio)-4H-1,2,6-thiadiazin-4-one]	No	40%	10%	7%	–	–	–
O=c1c(Cl)nsnc1N1CCN(c2ccccc2)CC1 [Compound 9a, 3-Chloro-5-(4-phenylpiperazin-1-yl)-4H-1,2,6-thiadiazin-4-one]	15%	–	7%	6%	–	7.5 µM	–
Cn1nnnc1Sc1nsnc(Cl)c1=O [Compound 11b, 3-Chloro-5-[(1-methyl-1H-tetrazol-5-yl)thio]-4H-1,2,6-thiadiazin-4-one]	45%	44%	3%	3%	–	–	–
O=c1c(Cl)nsnc1Sc1nc2ccccc2s1 [Compound 11h, 3-(benzo[d]thiazol-2-ylthio)-5-chloro-4H-1,2,6-thiadiazin-4-one]	No	33%	8%	1%	–	–	–
CC(=O)Nc1ccc(Sc2nsnc(Cl)c2=O)cc1 [Compound 11d, N-{4-[(5-Chloro-4-oxo-4H-1,2,6-thiadiazin-3-yl)thio]phenyl}acetamide]	43%	–	1%	2%	–	85 µM	–
Cn1nnnc1SC1=NSN=C(Cl)C1=C(C#N)C#N [Compound 12b, 2-{3-Chloro-5-[(1-methyl-1H-tetrazol-5-yl)thio]-4H-1,2,6-thiadiazin-4-ylidene}malononitrile]	No	–	27%	36%	–	75 µM	–
Cc1ccnc(SC2=NSN=C(Cl)C2=C(C#N)C#N)n1 [Compound 12a, 2-{3-Chloro-5-[(4-methylpyrimidin-2-yl)thio]-4H-1,2,6-thiadiazin-4-ylidene}malononitrile]	18%	41%	82%	90%	–	–	–
O=c1c(Cl)nsnc1N1CCN(C(c2ccccc2)c2ccccc2)CC1 [Compound 9b, 3-(4-Benzhydrylpiperazin-1-yl)-5-chloro-4H-1,2,6-thiadiazin-4-one]	20%	–	2%	2%	–	55 µM	–
Cc1c(C)c2c(c(C)c1O)CCC(C)(C(=O)O)O2 (centres unmarked) [Trolox, reference compound]	93%	–	–	–	–	–	–
CCOc1ccc2nc(Sc3nsnc(Cl)c3=O)sc2c1 [Compound 11i, 3-Chloro-5-[(6-ethoxybenzo[d]thiazol-2-yl)thio]-4H-1,2,6-thiadiazin-4-one]	No	–	3%	no	–	67.5 µM	–
